# PubChem BioAssay AID1645866 (Buhrlage Lab, Dana-Farber Cancer Institute and Novartis …, 2021)
# Active and inactive are the calls of the source.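 Rule for the calls: active = in confirmatory dose-response testing, peak deubiquitinase inhibition of 30% or more; inactive = the rest.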
# Molecular target: Ubiquitin carboxyl-terminal hydrolase 28 (Homo sapiens) (UniProt Q96RU2)
# Assay: Ubiquitin-specific peptidase 28 DUB inhibitors, biochemical concentration-dependence assay, validation of primary screening hits (AID 1645866)
# Settings: purified USP28, ubiquitin-rhodamine fluorescence, 30 min
# Ubiquitin carboxyl-terminal hydrolase 28 (Homo sapiens), sequence (Q96RU2 whole entry, looked up): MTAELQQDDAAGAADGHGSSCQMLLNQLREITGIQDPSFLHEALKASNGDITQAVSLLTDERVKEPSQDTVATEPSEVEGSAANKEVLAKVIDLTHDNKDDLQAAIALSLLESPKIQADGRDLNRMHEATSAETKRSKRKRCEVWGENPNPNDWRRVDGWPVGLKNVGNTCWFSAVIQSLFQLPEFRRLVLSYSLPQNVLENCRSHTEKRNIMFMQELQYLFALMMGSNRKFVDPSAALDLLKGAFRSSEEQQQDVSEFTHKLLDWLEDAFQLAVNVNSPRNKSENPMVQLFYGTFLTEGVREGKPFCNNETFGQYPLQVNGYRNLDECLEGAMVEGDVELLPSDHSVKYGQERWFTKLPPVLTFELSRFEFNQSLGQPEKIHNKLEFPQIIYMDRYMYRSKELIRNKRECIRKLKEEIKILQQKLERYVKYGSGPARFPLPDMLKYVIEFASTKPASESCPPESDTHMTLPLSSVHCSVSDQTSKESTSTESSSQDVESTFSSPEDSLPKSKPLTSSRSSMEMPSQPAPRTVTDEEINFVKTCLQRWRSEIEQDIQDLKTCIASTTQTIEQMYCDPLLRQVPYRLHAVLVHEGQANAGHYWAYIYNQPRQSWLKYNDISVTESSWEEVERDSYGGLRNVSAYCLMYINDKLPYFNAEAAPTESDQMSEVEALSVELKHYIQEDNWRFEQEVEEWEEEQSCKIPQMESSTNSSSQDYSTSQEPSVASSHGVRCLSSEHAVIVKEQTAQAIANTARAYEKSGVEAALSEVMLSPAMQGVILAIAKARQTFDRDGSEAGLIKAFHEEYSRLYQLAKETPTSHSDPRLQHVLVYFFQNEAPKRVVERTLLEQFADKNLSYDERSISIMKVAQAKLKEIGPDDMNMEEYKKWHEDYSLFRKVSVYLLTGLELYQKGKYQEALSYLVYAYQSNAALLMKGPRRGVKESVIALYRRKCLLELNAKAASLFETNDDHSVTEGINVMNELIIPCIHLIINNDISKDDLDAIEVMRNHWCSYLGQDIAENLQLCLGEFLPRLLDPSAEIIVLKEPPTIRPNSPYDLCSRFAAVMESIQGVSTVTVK
row,IC50,Structure (SMILES)
1,> 50 µM (inactive),c1coc(CNc2nc3ccccc3n3nnnc23)c1
2,6.9 µM,Cc1ccccc1Cn1ccc(NC(=O)c2noc(C)c2[N+](=O)[O-])n1
3,10 µM,COc1ccc(-c2cc3c(=O)n(CC(=O)Nc4ccccc4Cl)ccn3n2)cc1
4,9.89 µM,Cc1noc(-c2cc(=O)n(CC(=O)NCc3ccccc3F)c3ccccc23)n1
5,> 50 µM (inactive),Cc1ccc2c(=O)c3c([nH]c2c1C)CCN(CC(=O)NCc1ccccc1)C3
6,29.7 µM,COc1ccccc1N1CCN(C(=O)c2ccc3c(c2)N(Cc2cc(C)ccc2C)C(=O)c2ccccc2S3=O)CC1 (stereo not given)
7,15.3 µM,Cc1cccc(C(=O)Nc2cccc(SC(C(=O)Nc3ccc(Cl)c(C(=O)O)c3)c3ccccc3)c2)c1 (stereo not given)
8,2.07 µM,COc1ccccc1-c1nc2c3c(C)c(C)n(-c4ccc(Br)cn4)c3ncn2n1
9,2.54 µM,O=C(COc1ccc2c(-c3ccccc3)cc(=O)oc2c1)Nc1cccnc1
10,4.08 µM,COc1ccc(-c2nc3n(n2)C(CC(=O)Nc2cccc4ccccc24)C(=O)N3)cc1 (stereo not given)
11,44 µM,Cc1ccc(CNC(=O)c2cccc(N3C(=O)N4CCc5c([nH]c6ccccc56)[C@@]4(C)C3=O)c2)cc1
12,> 50 µM (inactive),COc1ccc(C(=O)CCN2CCOCC2)cc1[N+](=O)[O-]
13,22.6 µM,O=C(/C=C/c1cnc2ccccc2c1)NCc1ccccc1
14,17.3 µM,COc1ccc(Cl)c(NC(=O)C2CC(=O)Nc3cc(-c4ccccc4)nn32)c1 (stereo not given)
15,9.44 µM,O=C(Nc1ccc2c(c1)OCCO2)C1CCN(C(=O)c2ccccc2)CC1
16,> 50 µM (inactive),COc1ccc(CCNC(=O)c2c(N)n(-c3cccc(Cl)c3)c3nc4ccccc4nc23)cc1
17,> 50 µM (inactive),Cc1cc(Cl)ccc1Nc1nc(Nc2cccc(F)c2)nc2nccnc12
18,3.13 µM,CC(=O)c1cccc(NC(=O)c2ccc(-c3csc(C)n3)cc2)c1
19,> 50 µM (inactive),NC(=O)CCC(=O)N[C@H]1C[C@H]2CN(Cc3ccccc3)c3ccccc3CN2C1
20,2.15 µM,O=C(Nc1cccc(Br)c1)c1cc(-c2cccnc2)n[nH]1
21,32.6 µM,COc1ccc(-c2cc(-c3ccc(O)cc3)nc(N)c2C#N)cc1OC
22,8.66 µM,N#Cc1ccc(Cn2nnc(-c3cccc(Cl)c3)n2)cc1
23,45.2 µM,COC(=O)c1cc(C#N)c(NCc2ccccc2)nc1C
24,3.53 µM,Cc1ccc(NC(=O)Cc2nnc3c(-c4nc(C5CC5)no4)cccn23)cc1
25,6.48 µM,O=C(COC(=O)c1cc2c(s1)CCC2)c1ccc2[nH]c(=O)[nH]c2c1

row,IC50,Structure (SMILES)
1,0.364 µM,CCS(=O)(=O)N1CCc2cc(C(=O)Nc3ccc4c(c3)OCCO4)ccc21
2,23 µM,CCOc1ccc(C(=O)Cn2c(=O)n(CC3CCCO3)c(=O)c3cc(OC)c(OC)cc32)cc1Cl (stereo not given)
3,23.6 µM,COc1ccc(OC)c(CCNC(=O)CCC2=NS(=O)(=O)c3ccc(C(F)(F)F)cc3N2)c1
4,< 0.05 µM,O=C(NCCN1CCCC1)C1CCN(c2cnc(N3CCCCC3)nc2)CC1
5,36.1 µM,COc1cc(O)c2c(=O)c(-c3ccc(O)cc3)coc2c1
6,37.5 µM,CC(C)CCN1C(=O)C2C(C(=O)Nc3ccc(Oc4ccccc4)cc3)C3C=CC2(O3)C1C(=O)NC1CCCCC1 (stereo not given)
7,6.69 µM,COc1cccc(NC(=O)c2ccc(-c3csc(C)n3)cc2)c1
8,18.3 µM,O=C(CNC(=O)c1cc2ccccc2o1)Nc1ccc2c(c1)OCCO2
9,1.01 µM,CCCCOc1ccc(C(=O)Nc2ccc3c(c2)CCC(=O)N3CCC)cc1
10,> 50 µM (inactive),COc1cccc(N2CCN(C(=O)c3cc(NC(C)=O)cc4nc(C)ccc34)CC2)c1
11,23.1 µM,Cc1c(C)n(-c2ccccc2)c2ncn(CC(=O)NCCCc3ccccc3)c(=O)c12
12,> 50 µM (inactive),COc1ccc(OC)c(-c2cn3ccn(-c4ccc5c(c4)CCC5)c(=O)c3n2)c1
13,1.1 µM,CN(C)Cc1ccc(C(=O)Nc2ccc(-c3nccs3)cc2)cc1
14,3.85 µM,NS(=O)(=O)c1ccc(NS(=O)(=O)c2ccc(NC(=O)Nc3ccc(Cl)cc3)cc2)cc1
15,> 50 µM (inactive),Cc1ccc(C)c(-n2c(N)c(C(=O)NCCc3ccccc3)c3nc4ccccc4nc32)c1
16,0.108 µM,Cn1c2ccccc2c(=O)c2c(=O)n(Cc3ccccc3)c(-c3ccccc3F)nc21
17,35.9 µM,O=C(NC1CCCC1)C1CC(=O)N(c2cccc(-c3noc(-c4cccs4)n3)c2)C1 (stereo not given)
18,10.2 µM,Cn1c(=O)/c(=C/c2ccccc2)[nH]c(=O)/c1=C/c1ccccc1
19,24.3 µM,O=C1Cc2ccccc2C(=O)N1c1ccc2c(c1)OCO2
20,2.92 µM,O=C(COC(=O)c1cc(Cl)c2c(c1)OCO2)Nc1ccc2[nH]c(=O)[nH]c2c1
21,> 50 µM (inactive),CCOc1ccc(C2=NCCNC3=C2C(c2ccccc2)N(c2ccccc2)C3=O)cc1 (stereo not given)
22,12.3 µM,CC1OC2CC(O)C1(O)C1=C2C(O)=C(C(N)=O)C(=N)C1=O (stereo not given)
23,4.21 µM,Cc1ccc2c(c1)c(=O)c(C(=O)c1ccccc1)cn2CC(=O)Nc1ccc2c(c1)OCCO2
24,35.9 µM,Cc1ccc2c(c1)c(=O)c(C(=O)c1ccc(F)cc1)cn2CC(=O)Nc1ccc2c(c1)OCCO2
25,10.7 µM,CC(C)Oc1ccc(C(=O)Nc2cccc(S(=O)(=O)N3CCCC3)c2)cc1

row,IC50,Structure (SMILES)
1,28.1 µM,Cc1ccc(C(=O)NCc2ccc(C(=O)Nc3cccc(C)c3)o2)cc1
2,> 50 µM (inactive),Cc1nn(-c2ccccc2)c2c1N=C1C(Cl)=CC(Cl)=CN1C21C(=O)Nc2ccccc21 (stereo not given)
3,1.8 µM,Cc1c(-c2ccc(C#N)cc2)oc2ccc(Br)cc2c1=O
4,4.17 µM,Cc1ccc2nc(NC(=O)CSc3nnc(-c4ccncc4)n3C3CC3)sc2c1
5,> 50 µM (inactive),O=c1ncn(Cc2ccc3c(c2)OCO3)cc1-c1ncc(C(F)(F)F)cc1Cl
6,37.1 µM,COc1ccccc1CC(=O)Nc1nc2ccccc2[nH]1
7,> 50 µM (inactive),O=C(c1ccco1)N1CCCC2(C1)Nc1cccnc1NC2=NC1CCCC1 (stereo not given)
8,> 50 µM (inactive),CCOC(=O)c1ccc(-n2c(=O)c(C#N)cc3c(=O)n4ccccc4nc32)cc1
9,2.78 µM,COC(=O)c1ccc(C(=O)Nc2cc3ccccc3cc2NC(=O)c2ccc(C(=O)OC)cc2)cc1
10,17.1 µM,O=C(CSc1ncnc2c1oc1ccccc12)Nc1ccc2c(c1)OCCO2
11,> 50 µM (inactive),O=C(CCC1CCCCC1)Nc1ccccc1C(=O)N1CCOCC1
12,13.5 µM,Cc1ccc2[nH]c(=O)c(CN(CC3COCCO3)S(=O)(=O)c3ccc(F)cc3)cc2c1 (stereo not given)
13,29.7 µM,Cc1ccc(CNC(=O)c2ccc(N3C(=O)[C@@H]4Cc5ccccc5CN4C3=O)cc2)cc1
14,> 50 µM (inactive),Cc1cccc(NC(=O)c2nc(N3CCSCC3)c3cnn(C)c3n2)c1
15,21 µM,O=C(Nc1ccccc1)c1nc(-c2cn(Cc3ccc(F)cc3)nn2)no1
16,> 50 µM (inactive),N#Cc1c(-c2cccs2)cc(-c2cccs2)[nH]c1=O
17,> 50 µM (inactive),O=C(Cc1cccnc1)Nc1ccc(N2CCN(C3CCCCC3)C2=O)nc1
18,18.8 µM,O=C(Nc1cccc2ccccc12)C1CCCN(S(=O)(=O)Cc2ccccc2)C1 (stereo not given)
19,44.6 µM,Cc1ccc(CN2C(=O)c3cc4ccccc4n3CC2(C)C(=O)NCc2ccccc2)o1 (stereo not given)
20,> 50 µM (inactive),C/C1=C/C=C/[C@H](C)[C@H](O)[C@@H](C)[C@@H](O)[C@@H](C)[C@H](O)[C@H](C)[C@@H](O)[C@@H](C)/C=C(/C)C(=O)c2c(O)c(C)cc3c2C(=O)C=C(NC1=O)C3=O
21,2.12 µM,COc1ccc(-c2nc(Cn3nnc(C(=O)Nc4ccc(C)c(C)c4)c3N)c(C)o2)cc1
22,> 50 µM (inactive),O=C(Nc1cc(F)c2nc(N3CCCC3)ccc2c1)c1ccco1
23,6.72 µM,COc1cccc(Cn2nc3n(CC(C)C)c(=O)c4ccc(C(=O)NCC(C)C)cc4n3c2=O)c1
24,2.76 µM,Cn1c(=O)sc2cc(NC(=O)c3ccc(Br)cc3)ccc21
25,2.17 µM,O=C(Nc1cccc(-c2nc3ccccc3[nH]2)c1)c1cc2ccccc2oc1=O

row,IC50,Structure (SMILES)
1,35 µM,O=C(CCCC(=O)c1ccccc1)Nc1ccc(F)cc1
2,21.1 µM,Cn1ccc2c(cc(C(=O)NCCC3=CCCCC3)n2C)c1=O
3,41.1 µM,CC1=C(c2ccc(F)cc2)S(=O)(=O)NC1=NCC(=O)Nc1ccc(F)cc1F
4,17.7 µM,Cc1cccc(CNC(=O)c2ccc(-c3nnc(-c4cccc(C)c4)o3)cc2)c1
5,> 50 µM (inactive),O=C(NCc1ccc2c(c1)OCO2)c1ccc(C2SCC(=O)N2Cc2ccco2)cc1 (stereo not given)
6,26.5 µM,CCn1cc(-c2nc(-c3ccccn3)no2)c(=O)c2cc(F)ccc21
7,21.6 µM,COc1ccc(C2/C(=C(\O)c3ccccc3)C(=O)C(=O)N2c2nc3ccc(F)cc3s2)cc1 (stereo not given)
8,> 50 µM (inactive),Cc1ccc(C2c3cccn3CCN2C(=O)Nc2ccccc2)cc1 (stereo not given)
9,> 50 µM (inactive),CNC(=O)C1CN(C(=O)c2ccc(OC)cc2)CC12CCCC2 (stereo not given)
10,39 µM,Cc1ccc2nc(CNC(=O)c3ccccc3-c3nc(-c4ccc(F)cc4)no3)[nH]c2c1
11,> 50 µM (inactive),Cc1ccc2[nH]c(=O)c(CN(Cc3cccnc3)C(=O)c3cccc(Cl)c3)cc2c1
12,1.19 µM,O=C(Nc1nnc2n1CCCS2)c1cccc(Cl)c1
13,16.6 µM,CCCc1cc(=O)oc2cc(OCC(=O)NCc3ccc(OC)cc3)ccc12
14,18.3 µM,COc1cccc(NC(=O)Nc2nccn(-c3ccc(F)cc3)c2=O)c1
15,35.1 µM,Cc1ccccc1C(=O)NCCn1cc(SCC(=O)Nc2ccc3c(c2)OCCO3)c2ccccc21
16,29.1 µM,C=C1CCC2[C@](C)(CCC[C@]2(C)C(=O)OC)[C@H]1CCc1ccoc1/C=C/C(=O)O (stereo not given in full)
17,> 50 µM (inactive),CC(=O)c1ccc(NC(=O)c2nc3ccccc3nc2N2CCOCC2)cc1
18,6.5 µM,O=C(CSc1nc2cc(C(F)(F)F)ccc2s1)NCC(=O)c1ccccc1
19,29.1 µM,Fc1cccc(Cn2cc(-c3noc(-c4cccnc4)n3)nn2)c1
20,4.21 µM,Cc1ccc2c(c1)N(C)C(=O)c1cc(NC(=O)c3ccc(F)cc3)ccc1O2
21,> 50 µM (inactive),Oc1ccc(-c2nc3cnccn3c2NCCc2ccccc2)c(O)c1
22,29.5 µM,Cc1c(C(=O)NCc2cccc(Br)c2)oc2c1-c1[nH]ncc1CC2
23,> 50 µM (inactive),Nc1ccc(F)c(NS(=O)(=O)c2ccccc2)c1

row,Structure (SMILES),IC50
1,COc1cccc2c1NC(=O)C21CCN(C(=O)Nc2cccc3ccccc23)CC1,> 50 µM (inactive)
2,CC1CC[C@@]2(NC1)O[C@H]1C[C@H]3[C@@H]4CC=C5C[C@@H](O)CC[C@]5(C)[C@H]4CC[C@]3(C)[C@H]1[C@@H]2C (stereo not given in full),34.3 µM
